Test results: patent US10307418B2, “Azole pharmaceutical formulations for parenteral administration and methods for preparing and using the same as treatment of diseases sensitive to azole compounds” (Platform Brightworks Two, Ltd., priority 2010, dated 2019)
In brackets after ≈: the same amount, converted by molar mass. Like-named read-outs stand apart in the source and are kept apart here.

Columns and labels:
[1] = tested on: Candida cruzei (ATCC strain 6258); test: Yeast susceptibility test, MIC (CLSI standard); format: cell-based; conditions: tested range 38 μg/mL to 0.03 μg/mL, read out at 24 hours, average of three experiments
Experimental: (§1) Briefly, susceptibility tests were set-up using a standardized methodology (CLSI […] standard). Drugs were diluted into RPMI-Mops medium (Yeast One Broth (Sensititer, product Y3462, Trek Diagnostic Systems, Cleveland, Ohio) Sensititer Lot number 151416SA-expiration date 2011-01). Two different strains of yeast were tested, the standardized evaluation/read out was performed at 24 hours after the start of each culture. The tests were repeated twice and all MIC (minimum inhibitory concentration) values are reported as an average of the three experiments.

[2] = tested on: Candida parapsilosis; test: Yeast susceptibility test, MIC (CLSI standard); format: cell-based; conditions: tested range 38 μg/mL to 0.03 μg/mL, read out at 24 hours, average of three experiments
Experimental: as §1

[3] = tested on: Aspergillus fumigatus (ATCC strain 90906); test: Mold susceptibility test, MIC (CLSI M38A); format: cell-based
Experimental: (§2) Two hyaline molds were tested with a standard read out at 48 hrs:
(§3) Tested drug range: 75 μg/mL to 0.07 μg/mL
(§4) To further determine the antifungal activity of the compounds in the new formulation systems we investigated the efficacy of the various agents against additional strains of mucor and Aspergillus (9/-16-9/20/2010) (The Rhizomucor was a clinical isolate from a patient isolate) and the Aspergillus fumigatus (ATCC strain 90906) used was a repeat from the previously described experiment. Again, the susceptibility tests were set-up using the standardized test method (CLSI M38A). The used drugs were provided in the described H3 final use-formulation that has been previously described. All drugs were diluted in RPMI-Mops medium (YeastOne, Sensititer Lot 151416SA, expiration date January 2011).
As before two different molds were tested with a standard read out at 48 hr: • Drug dilution range 75 μg/mL to 0.07 μg/mL. • Aspergillus fumigatus (ATCC strain 90906) Zygomycete (Clinical Lab isolate, MDACC) […]

[4] = tested on: Aspergillus fumigatus (Clinical Lab isolate); test: Mold susceptibility test, MIC; format: cell-based; conditions: tested range 75 μg/mL to 0.07 μg/mL, read out at 48 hrs
Experimental: as §2, §3, §1

[5] = Maximum solubility of ITZA and azole analogues in solvents (HPLC); format: physicochemical; conditions: for solubility at 30 min: organic solvent or mixture, thermodynamic from solid
Experimental: ITZA and its analogues were dissolved in various solvents incubated at 37° C. for 30 minutes, cooled down to room temperature, centrifuged at 14,000 rpm for 1 min. The supernatant was analyzed using HPLC to determine the maximum solubility of ITZA and its azole analogues.
In a first step the maximum ITZA solubility in various single solvents was determined. To this end, ITZA and its analogs were dissolved in various solvents, incubated at 37° C. for 30 minutes, cooled down to room temperature, centrifuged at 14,000 rpm for 1 min. The supernatant was analyzed using HPLC to determine the maximum solubility of the respective agent.
The solubility of ITZA was determined in several individual vehicles. Briefly, a known amount of ITZA drug, formulated as a powder (Sigma Inc., St Louis, Mo.), was equilibrated in the respective solvent at RT over 1-4 hours. An aliquot was removed, filtered, and prepared for HPLC to determine maximum solubility at room temperature. Based on the ITZA solubility in each vehicle, different solvents were mixed according to the cosolvency principle in an attempt to arrive at an enhanced stable solubility. […] The stock formulation was then diluted with a final diluent, i.e. NS or D5W or DlOW, to yield a stable use-formulation. The desired range of the final use-formulation was between 1 and 5 mg/mL, as it would result in a final volume that could be safely and conveniently infused intravascularly.
An excess of ITZA as a powder was added to a multitude of chemical solvents (Table 1) at RT. Each mixture was intermittently vortexed, placed in a dark environment and checked visually for up to 4 hours for evidence of solubilization. Following centrifugation to remove solid particles, small samples were withdrawn after consecutive time intervals and the ITZA concentration was determined by HPLC as described.

[6] = tested on: Zygomycete (Clinical Lab isolate, MDACC); test: Extended mold testing, MIC (CLSI M38A); format: cell-based; conditions: H3 final use-formulation, range 75 μg/mL to 0.07 μg/mL, 48 hr
From the text: as §4
As before two different molds were tested with a standard read out at 48 hr: • Drug dilution range 75 μg/mL to 0.07 μg/mL. • Aspergillus fumigatus (ATCC strain 90906) Zygomycete (Clinical Lab isolate, MDACC)

[7] = extended mold testing (repeat), H3 final use-formulation, range 75 μg/mL to 0.07 μg/mL, 48 hr
[8] = tested range 75 μg/mL to 0.07 μg/mL, read out at 48 hrs, first experiment
[9] = solvent H3D (no benzyl alcohol), single determination, read-out: Azole solubility, [Drug] mg/mL
[10] = solvent H3D (no benzyl alcohol), read-out: Azole solubility, Average mg/mL
[11] = solvent H3G (no benzyl alcohol), single determination, read-out: Azole solubility, [Drug] mg/mL
[12] = solvent H3G (no benzyl alcohol), read-out: Azole solubility, Average mg/mL
[13] = solvent H3D (no benzyl alcohol), single determination
[14] = solvent H3G (no benzyl alcohol), single determination
[15] = Aspergillus fumigatus, 48 h, read-out: MIC

Row | MIC [1] | MIC [3, 7] | MIC [3, 8] | MIC [6] | Compound | MIC ([2]; 24 h, read-out: MIC) [µg/mL] | MIC [4] | solubility at 30 min [5, 9] [mg/mL] | solubility at 30 min [5, 10] [mg/mL] | solubility at 30 min [5, 11] [mg/mL] | solubility at 30 min [5, 12] [mg/mL] | Azole solubility, [Drug] mg/mL [5, 13] [mg/mL] | Azole solubility, [Drug] mg/mL [5, 14] [mg/mL] | MIC [2] | MIC [4, 15] [µg/mL] | MIC ([1]; Candida, ATCC6258, 24 h, read-out: MIC) [µg/mL] | MIC ([3]; Aspergillus fumigatus, ATCC90906, 48 h, extended mold testing (repeat), H3 final use-formulation, range 75 μg/mL to 0.07 μg/mL, 48 hr, read-out: MIC) [µg/mL] | MIC ([3]; Aspergillus fumigatus, ATCC90906, 48 h, tested range 75 μg/mL to 0.07 μg/mL, read out at 48 hrs, first experiment, read-out: MIC) [µg/mL] | MIC ([6]; read-out: MIC) [µg/mL]
1 | all grew | all grew | all grew | all grew | OC(Cn1cncn1)(Cn1cncn1)c1ccc(F)cc1F [FZSA, Fluconazole] | 1.2 (≈ 3.92 µM) | all grew | 38.6 (≈ 126000 µM) | 36.1 (≈ 118000 µM) | 28.4 (≈ 92700 µM) | 30.3 (≈ 98900 µM) | 33.5 | 32.2 |  |  |  |  |  | 
2 | all grew (no drug effect) | all grew (no inhibition) | all grew (no drug effect) | all grew | COC(=O)Nc1nc2ccc(C(=O)c3ccccc3)cc2[nH]1 [MBZSA, Mebendazole] |  |  |  |  |  |  |  |  | all grew | 5 (≈ 16.9 µM) |  |  |  | 
3 |  |  |  |  | CC(=O)N1CCN(c2ccc(OCC3COC(Cn4ccnc4)(c4ccc(Cl)cc4Cl)O3)cc2)CC1 (stereo not drawn) [KZSA, Ketoconazole] | 0.03 (≈ 0.0565 µM) |  | 15.4 (≈ 29000 µM) | 15.3 (≈ 28800 µM) | 14.8 (≈ 27800 µM) | 14.9 (≈ 28000 µM) | 15.2 | 15.1 |  | 20 (≈ 37.6 µM) | 0.15 (≈ 0.282 µM) | 10 (≈ 18.8 µM) | 20 (≈ 37.6 µM) | 38 (≈ 71.5 µM)

Row | Compound | MIC [1] | MIC [3, 7] | MIC [3, 8] | MIC [6] | MIC ([2]; 24 h, read-out: MIC) [µg/mL] | MIC [4] | solubility at 30 min [5, 9] [mg/mL] | solubility at 30 min [5, 10] [mg/mL] | solubility at 30 min [5, 11] [mg/mL] | solubility at 30 min [5, 12] [mg/mL] | Azole solubility, [Drug] mg/mL [5, 13] [mg/mL] | Azole solubility, [Drug] mg/mL [5, 14] [mg/mL] | MIC [2] | MIC [4, 15] [µg/mL] | MIC ([1]; Candida, ATCC6258, 24 h, read-out: MIC) [µg/mL] | MIC ([3]; Aspergillus fumigatus, ATCC90906, 48 h, extended mold testing (repeat), H3 final use-formulation, range 75 μg/mL to 0.07 μg/mL, 48 hr, read-out: MIC) [µg/mL] | MIC ([3]; Aspergillus fumigatus, ATCC90906, 48 h, tested range 75 μg/mL to 0.07 μg/mL, read out at 48 hrs, first experiment, read-out: MIC) [µg/mL] | MIC ([6]; read-out: MIC) [µg/mL]
4 | CCC(C)n1ncn(-c2ccc(N3CCN(c4ccc(OCC5COC(Cn6cncn6)(c6ccc(Cl)cc6Cl)O5)cc4)CC3)cc2)c1=O (stereo not drawn) [ITZA(ref 2), itraconazole] | 0.3 µg/mL (≈ 0.425 µM) | 0.3 µg/mL (≈ 0.425 µM) | 0.6 µg/mL (≈ 0.85 µM) | 2.5 µg/mL (≈ 3.54 µM) |  | 0.3 µg/mL (≈ 0.425 µM) |  |  |  |  |  |  | 0.15 µg/mL (≈ 0.213 µM) |  |  |  |  | 
